{"source": "patent US8946201B2", "about": "“Methods for inhibiting TGF-β” (Saint Louis University, priority 2007, dated 2015)", "key": {"[1]": {"tested_on": "Smad2 phosphorylation stimulated by TGF-β1", "test": "TGF-β1-stimulated Smad2 phosphorylation, Western blot, BAEC", "format": "cell-based, bovine", "conditions": "25 μg/ml, 37° C. 1 hr, then 50 pM TGF-β1 0.5 hr", "protocol": "Cells were treated with increasing concentrations of cholesterol, as indicated (A, B, C), 50 μg protein/ml LDL (D), 5 μg protein/ml VLDL (D) or 50 μg/ml cholesterol (E) at 37° C. for 1 hr and then further incubated with 50 pM TGF-β1 for 30 min. Phosphorylated Smad2 (P-Smad2) and total Smad2 in the cell lysates were analyzed by 7.5% SDS-PAGE and followed by immunoblot analysis using anti-P-Smad2 and anti-Smad2 antibodies. A representative of a total of 3 analyses is shown (top). The quantitative analysis of the immunoblots is shown (bottom). […] Smad2 nuclear translocation was analyzed by indirect immunofluorescent staining using P-Smad2 antibody and rhodamine-labeled 2nd antibody (E). Rhodamine fluorescence represents P-Smad2 staining (a,b,c) whereas the nuclei were stained by DAPI staining (d,e,f).\nCells grown to near confluence on 12-well cluster dishes were treated with cholesterol or LDL in serum-free DMEM (vol.=0.5 ml/well) at 37° C. for 1 hr. […] Treated cells were lysed and cell lysates were analyzed by 7.5% SDS-PAGE and Western blot analysis using anti-Smad2, anti-P-Smad2, anti-caveolin-1, anti-TβR-I (alk5) or anti-TβR-II antibodies as described previously (30). […]\nIt has been reported that TGF-β responsiveness is determined by TGF-β partitioning between lipid raft/caveolae-mediated and clathrin-mediated endocytosis. […]"}, "[2]": {"tested_on": "Smad2 nuclear translocation", "test": "Smad2 nuclear translocation, indirect immunofluorescent staining, Mv1Lu cells", "format": "cell-based, mink", "conditions": "50 μg/ml 1 hr, then 50 pM TGF-β1 30 min", "description": "Cells were treated with increasing concentrations of cholesterol, as indicated (A, B, C), 50 μg protein/ml LDL (D), 5 μg protein/ml VLDL (D) or 50 μg/ml cholesterol (E) at 37° C. for 1 hr and then further incubated with 50 pM TGF-β1 for 30 min. […] Smad2 nuclear translocation was analyzed by indirect immunofluorescent staining using P-Smad2 antibody and rhodamine-labeled 2nd antibody (E). Rhodamine fluorescence represents P-Smad2 staining (a,b,c) whereas the nuclei were stained by DAPI staining (d,e,f).\nFor indirect immunofluorescent staining, cells grown on cover glass were fixed in cold 100% methanol and then incubated with antibody to P-Smad2 overnight. The antigen was visualized by incubation with Rhodamine-conjugated goat antibody to rabbit IgG followed by immunofluorescence microscopy.\nTo test this possibility, we determined the effect of cholesterol treatment on Smad2 phosphorylation and nuclear translocation, both of which are key signaling events, leading to TGF-β responsiveness. […] To determine the effect of cholesterol on Smad2 nuclear translocation, Mv1Lu cells were treated with 50 μg/ml cholesterol at 37° C. for 1 hr and then further incubated with and without 50 pM TGF-β1 at 37° C. for 30 min. These cells were subjected to immunofluorescent staining using anti-P-Smad2 antibody and nuclear DAPI (4′,6-diamidine-2-phenylindole dihydrochloride) staining."}, "PAI-1 expression": {"tested_on": "PAI-1 expression", "test": "TGF-β1-induced PAI-1 expression, Northern blot, BAEC", "format": "cell-based, bovine", "conditions": "50 μg/ml, TGF-β1 2 to 100 pM", "protocol": "(A, B, C, D, E, F) Cells were treated with 50 μg/ml cholesterol (A, B, C, D) and 50 μg/ml LDL (D) at 37° C. for 1 hr or with 1 μM fluvastatin or lovastatin (E) or several concentrations of fluvastatin (F) at 37° C. for 16 hr and then further incubated with increasing concentrations (as indicated) of TGF-β1 (A, B, C, E) or 50 pM TGF-β1 (D,F) for 2 hr. Northern blot analysis of PAI-1 and G3PDH was performed. A representative of a total of three analyses is shown (a). The relative intensities of the transcripts were quantified with a PhosphoImager. The ratio of the relative intensities of PAI-1 and G3PDH transcripts in cells treated without TGF-β1 and cholesterol, LDL or statins on the blot was taken as 1 fold or 100% of PAI-1 expression. The quantitative data from three independent analyses is shown (b). […] (G) Mv1Lu cells stably expressing a luciferase reporter gene driven by the PAI-1 promoter (MLECs-clone 32) were treated with increasing concentrations (as indicated) of cholesterol at 37 EC for 1 hr (a) or with 1 μM lovastatin at 37° C. for 16 hr (b) and then further incubated with 50 pM TGF-β for 7 hr. The luciferase activity in cells treated without cholesterol was taken as 100% (a). […] (H) Cells were incubated with 0.0625 and 0.125 pM TGF-β1 in the presence of increasing concentrations of cholesterol, as indicated. […] The experiments were carried out in triplicate."}}, "data": [{"smiles": "CC(C)CCC[C@@H](C)[C@H]1CC[C@H]2[C@@H]3CC=C4C[C@@H](O)CC[C@]4(C)[C@H]3CC[C@]12C", "note": "[cholesterol]", "values": [{"measurement": "suppression of Smad2 phosphorylation stimulated by TGF-β1", "setting": "[1]", "result": 90, "unit": "%"}, {"measurement": "effect on Smad2 nuclear translocation", "setting": "[2]", "result": "suppressed"}, {"measurement": "suppression of TGF-β1-stimulated PAI-1 expression", "setting": "PAI-1 expression", "result": "50-80%"}]}]}
